The values that follow come from ChEMBL document CHEMBL5465560, “Selectivity Literature for EUbOPEN Chemogenomic Library” (2024).

Test [1] addresses T1, Serine/threonine-protein kinase PLK4 (Homo sapiens) (UniProt O00444).
T1 sequence (whole entry): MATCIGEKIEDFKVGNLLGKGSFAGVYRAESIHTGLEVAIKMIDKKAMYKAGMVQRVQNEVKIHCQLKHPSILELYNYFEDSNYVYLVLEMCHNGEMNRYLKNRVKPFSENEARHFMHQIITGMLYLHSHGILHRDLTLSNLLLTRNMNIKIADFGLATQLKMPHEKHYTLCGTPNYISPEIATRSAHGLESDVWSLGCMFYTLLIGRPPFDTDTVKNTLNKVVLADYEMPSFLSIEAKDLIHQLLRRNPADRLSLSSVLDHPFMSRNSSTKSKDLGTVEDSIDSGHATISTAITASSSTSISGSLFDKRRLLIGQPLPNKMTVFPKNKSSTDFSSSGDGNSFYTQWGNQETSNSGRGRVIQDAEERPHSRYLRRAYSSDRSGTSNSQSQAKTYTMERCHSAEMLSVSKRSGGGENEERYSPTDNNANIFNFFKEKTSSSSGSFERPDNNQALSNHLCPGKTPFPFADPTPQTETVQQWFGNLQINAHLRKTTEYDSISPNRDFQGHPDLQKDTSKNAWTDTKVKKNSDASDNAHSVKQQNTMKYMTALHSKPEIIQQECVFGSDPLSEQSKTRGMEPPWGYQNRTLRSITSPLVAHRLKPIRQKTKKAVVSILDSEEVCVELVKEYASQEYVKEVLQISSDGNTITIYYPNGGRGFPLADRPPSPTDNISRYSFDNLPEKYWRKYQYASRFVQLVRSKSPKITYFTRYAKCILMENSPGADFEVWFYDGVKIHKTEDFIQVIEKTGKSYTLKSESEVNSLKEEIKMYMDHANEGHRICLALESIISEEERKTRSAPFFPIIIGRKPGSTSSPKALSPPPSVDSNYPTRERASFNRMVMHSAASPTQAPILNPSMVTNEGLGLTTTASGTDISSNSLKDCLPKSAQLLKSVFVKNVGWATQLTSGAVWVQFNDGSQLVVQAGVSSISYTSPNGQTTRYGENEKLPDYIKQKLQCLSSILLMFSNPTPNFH
Kind of test: Selectivity interaction (KinomeScan (DiscoverX)) EUB0000229b PLK4. The conditions noted are these: at 10 µM.

For test [2], the target named is T2, Cyclin-dependent kinase-like 2 (Homo sapiens) (UniProt Q92772).
T2 sequence (whole entry): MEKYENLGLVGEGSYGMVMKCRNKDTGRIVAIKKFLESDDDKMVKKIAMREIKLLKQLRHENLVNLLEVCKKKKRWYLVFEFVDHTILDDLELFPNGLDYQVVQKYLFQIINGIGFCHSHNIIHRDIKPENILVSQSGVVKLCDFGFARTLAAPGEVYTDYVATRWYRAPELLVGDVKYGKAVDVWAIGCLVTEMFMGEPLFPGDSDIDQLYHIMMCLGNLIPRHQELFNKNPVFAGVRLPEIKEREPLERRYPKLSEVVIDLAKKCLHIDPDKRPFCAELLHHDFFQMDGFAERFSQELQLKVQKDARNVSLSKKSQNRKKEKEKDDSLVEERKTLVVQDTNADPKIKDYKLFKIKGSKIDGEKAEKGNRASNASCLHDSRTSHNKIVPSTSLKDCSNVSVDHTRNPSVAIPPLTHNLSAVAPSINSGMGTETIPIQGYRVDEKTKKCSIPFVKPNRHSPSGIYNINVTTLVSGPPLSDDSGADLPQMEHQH
Kind of test: Selectivity interaction (KinomeScan (DiscoverX)) EUB0000655a CDKL2. The following applies: at 10 µM.

For test [3], the target named is Protein kinase C delta type (Homo sapiens) (UniProt Q05655). Kind of test: Selectivity interaction (KinomeScan (DiscoverX)) EUB0000655a PRKCD. The following applies: at 10 µM.
Test [4] concerns the target Mitogen-activated protein kinase kinase kinase kinase 1 (Homo sapiens) (UniProt Q92918). Briefly: Selectivity interaction (KinomeScan (DiscoverX)) EUB0000655a MAP4K1. The following applies: at 10 µM.
In test [5] the target is Serine/threonine-protein kinase 24 (Homo sapiens) (UniProt Q9Y6E0). Briefly: Selectivity interaction (KinomeScan (DiscoverX)) EUB0001079a STK24. The following applies: at 1 µM.
The target of test [6] is T3, Phosphatidylinositol 5-phosphate 4-kinase type-2 gamma (Homo sapiens) (UniProt Q8TBX8).
T3 sequence (whole entry): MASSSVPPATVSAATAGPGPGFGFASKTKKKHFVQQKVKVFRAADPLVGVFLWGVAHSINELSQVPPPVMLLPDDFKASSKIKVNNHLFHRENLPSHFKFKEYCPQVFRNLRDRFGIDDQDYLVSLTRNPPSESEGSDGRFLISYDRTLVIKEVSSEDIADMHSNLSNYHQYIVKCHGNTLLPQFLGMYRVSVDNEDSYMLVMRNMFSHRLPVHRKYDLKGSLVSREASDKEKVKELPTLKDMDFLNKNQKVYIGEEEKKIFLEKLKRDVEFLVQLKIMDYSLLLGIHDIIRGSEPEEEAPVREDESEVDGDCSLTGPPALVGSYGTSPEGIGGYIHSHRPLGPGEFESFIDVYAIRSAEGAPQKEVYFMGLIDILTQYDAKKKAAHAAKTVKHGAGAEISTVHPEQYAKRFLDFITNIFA
Briefly: Selectivity interaction (ActivX KiNativ screen (kinase selectivity in THP-1 cell lysates)) EUB0000639a PIP4K2C. The format is subcellular. The following applies: lysate, at 1 µM.

For test [7], the target named is Tudor domain-containing protein 3 (Homo sapiens) (UniProt Q9H7E2). Briefly: Selectivity interaction (PWWP, WD40, and Tudor domain panel (DSLS measurements, literature)) EUB0000270b TDRD3.
Test [8] addresses T4, Myosin light chain kinase family member 4 (Homo sapiens) (UniProt Q86YV6).
T4 sequence (whole entry): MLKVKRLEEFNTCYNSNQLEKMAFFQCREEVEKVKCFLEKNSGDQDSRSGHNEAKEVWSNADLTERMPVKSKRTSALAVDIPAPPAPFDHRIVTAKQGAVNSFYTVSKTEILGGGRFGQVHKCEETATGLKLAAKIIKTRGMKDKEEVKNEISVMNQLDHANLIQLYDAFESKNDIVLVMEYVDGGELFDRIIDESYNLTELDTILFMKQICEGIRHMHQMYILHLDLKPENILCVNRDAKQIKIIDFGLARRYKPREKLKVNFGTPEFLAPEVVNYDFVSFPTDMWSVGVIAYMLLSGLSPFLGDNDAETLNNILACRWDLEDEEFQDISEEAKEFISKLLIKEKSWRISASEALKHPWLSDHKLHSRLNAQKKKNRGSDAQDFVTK
Briefly: Selectivity interaction (KinomeScan (DiscoverX)) EUB0000092b MYLK4. The conditions noted are these: at 10 µM.

In test [9] the target is Mitogen-activated protein kinase 14 (Homo sapiens, UniProt Q16539). Briefly: Selectivity interaction (Upstate Kinase Profiler service (Millipore)) EUB0000056c MAPK14. The conditions noted are these: at 1 µM.
Mitogen-activated protein kinase 14, sequence (Q16539 whole entry): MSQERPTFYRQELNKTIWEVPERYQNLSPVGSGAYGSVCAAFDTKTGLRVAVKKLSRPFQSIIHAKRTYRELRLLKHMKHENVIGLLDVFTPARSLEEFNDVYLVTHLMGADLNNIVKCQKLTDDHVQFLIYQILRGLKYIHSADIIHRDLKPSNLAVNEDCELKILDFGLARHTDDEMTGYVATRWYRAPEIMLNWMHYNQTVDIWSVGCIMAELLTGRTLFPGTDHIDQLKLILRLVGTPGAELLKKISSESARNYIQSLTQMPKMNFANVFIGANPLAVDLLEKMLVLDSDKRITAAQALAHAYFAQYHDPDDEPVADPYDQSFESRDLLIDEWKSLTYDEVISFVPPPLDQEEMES

Tudor domain-containing protein 3 (Homo sapiens), sequence (Q9H7E2 whole entry, the tested form may be a part): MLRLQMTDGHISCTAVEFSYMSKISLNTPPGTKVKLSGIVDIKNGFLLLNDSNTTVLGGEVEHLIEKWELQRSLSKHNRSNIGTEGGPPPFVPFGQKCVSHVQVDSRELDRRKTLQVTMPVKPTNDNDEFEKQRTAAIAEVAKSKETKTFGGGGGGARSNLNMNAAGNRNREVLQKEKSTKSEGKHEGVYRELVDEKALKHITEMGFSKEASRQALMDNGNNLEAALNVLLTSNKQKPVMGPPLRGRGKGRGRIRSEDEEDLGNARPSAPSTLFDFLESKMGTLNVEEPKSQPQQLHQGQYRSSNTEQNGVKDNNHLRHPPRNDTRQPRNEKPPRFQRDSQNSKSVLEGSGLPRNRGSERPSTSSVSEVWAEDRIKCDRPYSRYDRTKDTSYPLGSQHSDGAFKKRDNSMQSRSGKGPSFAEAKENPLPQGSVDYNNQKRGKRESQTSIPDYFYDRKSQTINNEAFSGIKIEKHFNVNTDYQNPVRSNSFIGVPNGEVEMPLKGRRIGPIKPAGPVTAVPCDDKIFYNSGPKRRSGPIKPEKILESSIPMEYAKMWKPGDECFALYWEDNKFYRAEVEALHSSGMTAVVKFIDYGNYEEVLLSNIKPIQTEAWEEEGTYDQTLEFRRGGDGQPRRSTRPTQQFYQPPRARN
Mitogen-activated protein kinase kinase kinase kinase 1 (Homo sapiens), sequence (Q92918 whole entry, looked up): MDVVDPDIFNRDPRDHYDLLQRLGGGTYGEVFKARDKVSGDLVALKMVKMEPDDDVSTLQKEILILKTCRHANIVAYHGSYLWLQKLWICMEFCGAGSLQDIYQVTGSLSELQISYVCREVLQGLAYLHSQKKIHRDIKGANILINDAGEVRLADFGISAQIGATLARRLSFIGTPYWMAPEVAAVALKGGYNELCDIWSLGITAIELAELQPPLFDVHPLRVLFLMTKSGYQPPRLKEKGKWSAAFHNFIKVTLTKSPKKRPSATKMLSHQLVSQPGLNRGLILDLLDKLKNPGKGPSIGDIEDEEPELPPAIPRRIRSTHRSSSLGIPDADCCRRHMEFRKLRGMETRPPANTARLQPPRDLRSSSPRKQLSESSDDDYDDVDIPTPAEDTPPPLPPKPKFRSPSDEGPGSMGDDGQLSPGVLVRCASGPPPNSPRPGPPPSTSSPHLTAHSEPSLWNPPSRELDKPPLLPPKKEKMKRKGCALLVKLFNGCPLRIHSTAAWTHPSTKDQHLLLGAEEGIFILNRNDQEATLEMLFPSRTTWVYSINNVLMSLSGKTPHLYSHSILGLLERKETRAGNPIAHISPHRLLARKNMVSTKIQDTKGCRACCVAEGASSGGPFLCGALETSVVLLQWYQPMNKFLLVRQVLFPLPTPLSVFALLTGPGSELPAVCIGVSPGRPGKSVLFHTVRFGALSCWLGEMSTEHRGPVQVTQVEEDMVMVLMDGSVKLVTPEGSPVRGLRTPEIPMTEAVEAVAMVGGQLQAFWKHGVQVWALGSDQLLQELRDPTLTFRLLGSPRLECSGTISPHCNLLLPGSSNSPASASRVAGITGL
Serine/threonine-protein kinase 24 (Homo sapiens), sequence (Q9Y6E0 whole entry, looked up): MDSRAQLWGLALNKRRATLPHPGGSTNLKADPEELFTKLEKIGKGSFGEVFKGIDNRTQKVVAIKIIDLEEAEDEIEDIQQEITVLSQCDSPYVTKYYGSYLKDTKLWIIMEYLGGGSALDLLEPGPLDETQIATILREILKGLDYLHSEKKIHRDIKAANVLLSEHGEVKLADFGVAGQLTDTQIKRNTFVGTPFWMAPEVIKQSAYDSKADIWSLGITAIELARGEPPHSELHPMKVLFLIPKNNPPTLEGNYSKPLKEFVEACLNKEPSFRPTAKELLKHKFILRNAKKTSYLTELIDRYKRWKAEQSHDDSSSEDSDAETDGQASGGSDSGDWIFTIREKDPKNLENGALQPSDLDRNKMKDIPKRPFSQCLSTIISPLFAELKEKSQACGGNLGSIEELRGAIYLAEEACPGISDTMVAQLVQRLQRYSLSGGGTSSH
Protein kinase C delta type (Homo sapiens), sequence (Q05655 whole entry, looked up): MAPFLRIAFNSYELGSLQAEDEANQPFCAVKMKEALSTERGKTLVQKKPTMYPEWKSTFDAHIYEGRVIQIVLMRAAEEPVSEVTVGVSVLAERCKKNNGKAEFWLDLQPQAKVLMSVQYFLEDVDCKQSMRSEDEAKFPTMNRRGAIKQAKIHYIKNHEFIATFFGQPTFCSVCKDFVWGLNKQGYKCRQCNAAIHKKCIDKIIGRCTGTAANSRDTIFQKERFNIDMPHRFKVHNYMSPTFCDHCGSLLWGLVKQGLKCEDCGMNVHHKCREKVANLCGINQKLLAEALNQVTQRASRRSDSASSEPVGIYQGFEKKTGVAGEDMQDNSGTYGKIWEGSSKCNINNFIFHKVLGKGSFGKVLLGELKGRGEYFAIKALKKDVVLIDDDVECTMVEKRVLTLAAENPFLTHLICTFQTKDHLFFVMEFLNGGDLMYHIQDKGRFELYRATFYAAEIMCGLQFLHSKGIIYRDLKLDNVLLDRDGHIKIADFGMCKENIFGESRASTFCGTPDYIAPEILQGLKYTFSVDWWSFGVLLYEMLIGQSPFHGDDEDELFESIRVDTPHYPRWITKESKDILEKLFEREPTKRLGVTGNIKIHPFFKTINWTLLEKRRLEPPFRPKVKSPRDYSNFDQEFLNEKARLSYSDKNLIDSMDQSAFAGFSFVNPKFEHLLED

In turn, `COc1cc(N(C)c2ccnc3ccc(C(F)(F)F)cc23)cc(OC)c1OC` registered a % binding in test [1] of 99%.

For the compound `CN(C)CCOc1ccc(-c2nc(-c3ccncc3)c(-c3ccc4c(c3)CC/C4=N\O)[nH]2)cc1`, the % of control in test [2] was found to be 100%; in test [3], 89%; in [4] it was 97%. `Nc1cnc(N2CCc3cc(S(=O)(=O)Nc4c(F)cc(Cl)cc4F)cc(N4CCCC4=O)c32)nc1` [TP-020n] displayed a % of control in test [5] of 100%. Turning to `CC[C@@H]1[C@H](F)C(=O)N[C@@H]1COc1nccc2cc(C(N)=O)c(OC)cc12` [ZIMLOVISERTIB], the % of inhibition in [6] stood at 76.4%. In the case of `Cc1cc(CN)cc(C)c1-c1ncn(C)c1-c1cncn1C`, the dTagg in [7] came out at 0.8 K. Turning to `CCC(=O)N1CCN(c2ccc(-n3c(=O)ccc4cnc5ccc(-c6cnc7ccccc7c6)cc5c43)cc2C(F)(F)F)CC1`, the % of control in test [8] came out at 83%. Turning to `Cc1ccc(-c2ccc3c(ccc4sc5c(c43)NC[C@@H](C)NC5=O)n2)cn1`, in test [9], the % of inhibition amounted to 0%.
